Values quoted from earlier work, collected in patent US20060233725A1, “Non-Endocrine Disrupting Cytoprotective UV Radiation Resistant Substance” (priority 2001, published 2006).

Tested on: cancer cells
Conditions: recent studies on endocrine disrupting agents in sunscreen formulations

SMILES | effect on growth of cancer cells
COc1ccc(C(=O)c2ccccc2)c(O)c1 [benzophenone-s] | made cancer cells grow more rapidly
Cc1ccc(C=C2C(=O)C3(C)CCC2C3(C)C)cc1 (centres unmarked) [4-methylbenzylidene camphor] | made cancer cells grow more rapidly

Continued, values first:

effect on growth of cancer cells | SMILES
made cancer cells grow more rapidly | CC1CC(OC(=O)c2ccccc2O)CC(C)(C)C1 (centres unmarked) [homosalate]
made cancer cells grow more rapidly | CCCCC(CC)COC(=O)C=Cc1ccc(OC)cc1 (centres unmarked) [octyl methoxycinnamate]
made cancer cells grow more rapidly | CCCCC(CC)COC(=O)c1ccc(N(C)C)cc1 (centres unmarked) [octyl-dimethyl-PABA]
